Assay results reported in patent US20260166021A1, “POLYMORPHIC FORMS OF A SOLUBLE EPOXIDE HYDROLASE INHIBITOR AND FORMULATIONS THEREOF” (EicOsis, LLC, priority 2022, published 2026).

Experiments:
Format in all cases: physicochemical
[1] = PEG-stability analyses: Form C/Form D mixture slurried in PEG300 with water; conditions: 1:1 mixture of Forms C and D slurried in PEG300; XRD
Description: Of particular interest was whether Form D would convert to a hydrate (e.g., Form C) in the presence of water. To investigate the critical water concentration for phase interconversion between Pattern C and D, a series experiments were designed (as summarized in TABLE 16). A 1:1 mixture of Forms C and D was prepared and slurried in PEG 300 with different levels of water concentrations. Phase transformations were monitored with XRD, and are summarized in FIG. 85, which (from top to bottom) provides XRD of Form C, Form D, the mixture following incubation in PEG300 containing 75% water, the mixture following incubation in PEG300 containing 50% water, the mixture following incubation in PEG300 containing 25% water, the mixture following incubation in PEG300 containing 10% water, and the mixture following incubation in PEG300 containing 5% water. […] Form D is the stable form in PEG300 with less than 50% water.

[2] = Chemical stability in pH media (HPLC impurities)
Description: For the pH stability analyses, approximately 2-3 mg Form D was incubated in 1.0 mL of aqueous pH 1.0 (0.1 M HCl), pH 6.8 (water adjusted using 0.1 M NaOH and 0.1 M HCl), and pH 10.0 solutions.

[3] = Thermal stress studies at 60° C. (XRD, HPLC); conditions: HPLC
Description: Briefly, 20 mg of solid Form A, B, C, D, E, F, G, and I were weighed into 7 mL glass vials. The vials were covered with tissue and stored in ovens set to 60° C. and ambient pressure. Following 1 and 7 days incubation, solid was collected for XRD analysis.
As shown in these figures, Forms B and C converted to Forms D and A, respectively, while the other forms remained unchanged.
The starting materials, intermediates (1 day of thermal stress), and products (7 days of thermal stress) were analyzed by H PLC. Representative chromatograms from the Form D thermal stress analyses are shown in FIGS. 81-83 (starting material, 1 day, and 7 day samples, respectively).

[4] = Differential scanning calorimetry (DSC): heat of fusion, thermal events
Description: Differential scanning calorimetry analyses were performed on each sample “as is.” Unless otherwise specified, samples were weighed in an aluminum pan, covered with a pierced lid, and then crimped and analyzed from 30-300° C. ramped at 10° C./min.
The DSC data were used to determine the heat of fusion for Forms A, B, D, and F, based on their heats of fusion as measured during conversion from Form C.

## CC[C@H](C)C(=O)N1CCC(NC(=O)Nc2ccc(OC(F)(F)F)c(F)c2)CC1 [Form D, (S)-1-(3-fluoro-4-(trifluoromethoxy)phenyl)-3-(1-(2-methylbutanoyl)piperidin-4-yl)urea]
[1]
  critical water concentration for phase interconversion between Pattern C and D: 50%
[2]; 50° C., pH 1.0
  Impurity, % (Day 4): None Detected
  Impurity, % (Day 7): None Detected
[2]; 50° C., pH 6.8
  Impurity, % (Day 4): None Detected
  Impurity, % (Day 7): None Detected
[2]; 50° C., pH 10.0
  Impurity, % (Day 4): None Detected
  Impurity, % (Day 7): None Detected
[2]; Room Temperature, pH 1.0
  Impurity, % (Day 4): None Detected
  Impurity, % (Day 7): None Detected
[2]; Room Temperature, pH 6.8
  Impurity, % (Day 4): None Detected
  Impurity, % (Day 7): None Detected
[2]; Room Temperature, pH 10.0
  Impurity, % (Day 4): None Detected
  Impurity, % (Day 7): None Detected
[2]; aqueous pH 1.0, pH 6.8, pH 10.0, 4 or 7 days, room temperature or 50° C.
  impurities after incubation in pH media: No impurities were detectable
[3]; 60° C.
  Day 1 % AUC: 100%
  Day 7 % AUC: 100%
[3]; before thermal stress
  Initial % AUC: 100%
[4]
  DSC Thermal Events, Endo: melting of pattern D: 143 °C melting of pattern D
[4]; DSC, TABLE 10
  stability rank among Forms A, B, D and F: highest stability
  thermodynamic stability (from heat of fusion): thermodynamically stable
[4]; DSC, scaled-up polymorphs, measured during conversion from Form C
  Heat of fusion: 67.51
